Laboratory results reported in publication PMC9097415, “Nanomolar EP4 receptor potency and expression of eicosanoid-related enzymes in normal appearing colonic mucosa from patients with colorectal neoplasia” (BMC Gastroenterology, 2022).
Where “and” joins values, the source holds several entries; their conditions need not be identical. Identical values can stand only once. Blank lines part the entries; values can stand above or below the compound they belong to.

Key:
[1] = target: T1, EP4 receptor (Homo sapiens, UniProt P35408); experiment: EP4 agonist stimulation of colonic mucosa biopsies in MUAS-chambers, SCC; assay type: cell-based
T1 construct: Four biopsies were mounted and oxygenated in MUAS-chambers after extraction; from tissue; host or cells: human colonic mucosa biopsies mounted in MUAS (modified Ussing) chambers
T1 sequence (P35408 whole entry): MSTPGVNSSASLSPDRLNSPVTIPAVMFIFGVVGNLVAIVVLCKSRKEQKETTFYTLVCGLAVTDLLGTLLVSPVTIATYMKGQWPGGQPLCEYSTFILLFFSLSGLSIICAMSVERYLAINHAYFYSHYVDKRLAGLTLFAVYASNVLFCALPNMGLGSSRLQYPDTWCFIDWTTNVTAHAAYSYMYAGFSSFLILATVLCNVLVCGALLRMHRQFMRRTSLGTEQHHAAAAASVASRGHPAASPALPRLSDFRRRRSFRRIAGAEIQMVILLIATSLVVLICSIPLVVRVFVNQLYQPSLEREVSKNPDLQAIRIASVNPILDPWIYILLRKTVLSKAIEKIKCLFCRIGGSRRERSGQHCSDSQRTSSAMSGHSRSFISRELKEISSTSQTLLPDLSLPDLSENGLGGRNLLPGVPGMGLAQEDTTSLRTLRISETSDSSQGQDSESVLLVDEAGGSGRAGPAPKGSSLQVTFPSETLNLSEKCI
Method: (§1) Four biopsies were mounted and oxygenated in MUAS-chambers after extraction as described by Larsen et al. generally within 45 min after extraction. Biopsies were bathed on both sides with 10 mL Ringer, supplemented with 5.5 mM D-glucose. Temperature was maintained at 37.2 °C by water jackets. An automated voltage-clamp device continuously recorded SCC and slope conductance.
(§2) Experiments began after a stable basal SCC was obtained within 10 min after proper mounting. All experiments were initiated by addition of amiloride (20 µM, mucosal side) to inhibit electrogenic sodium absorption mediated through epithelial sodium channels and followed by theophylline (400 µM, serosal side) to inhibit phosphodiesterase-dependent cyclic adenosine monophosphate (cAMP) degradation. Finally, to eliminate endogenous prostaglandin synthesis, indomethacin (13 µM, serosal side) was added and incubated for 40 min.
(§3) Biopsies from 47 patients were treated with PGE2 and selective EP receptor agonists to investigate receptor function, Table 1. A single agonist was added in increasing concentrations (1 nM to 5 µM, serosal side) to each MUAS-chamber. The final agonist concentration step was followed by the addition of 5 µM PGE2, to elicit a maximal PGE2-induced response.
(§4) To assess agonists and receptors, data obtained from dose–response curves were analyzed with either a single-Michaelis–Menten model (srm) or a two-Michaelis–Menten receptor/site model (trm) using Sigmaplot 13.0 for Windows, Systat Software Inc. (USA/Canada). Outcome data were maximum SCC responses (RMax) and EC50 of these analyses.

[2] = target: T2, EP1 receptor (Homo sapiens, UniProt P34995); experiment: EP1 agonist stimulation of colonic mucosa biopsies in MUAS-chambers, SCC; assay type: cell-based; settings: biopsies exposed to the selective EP1 agonist
T2 construct: Four biopsies were mounted and oxygenated in MUAS-chambers after extraction; from tissue; host or cells: human colonic mucosa biopsies mounted in MUAS (modified Ussing) chambers
T2 sequence (P34995 1-402): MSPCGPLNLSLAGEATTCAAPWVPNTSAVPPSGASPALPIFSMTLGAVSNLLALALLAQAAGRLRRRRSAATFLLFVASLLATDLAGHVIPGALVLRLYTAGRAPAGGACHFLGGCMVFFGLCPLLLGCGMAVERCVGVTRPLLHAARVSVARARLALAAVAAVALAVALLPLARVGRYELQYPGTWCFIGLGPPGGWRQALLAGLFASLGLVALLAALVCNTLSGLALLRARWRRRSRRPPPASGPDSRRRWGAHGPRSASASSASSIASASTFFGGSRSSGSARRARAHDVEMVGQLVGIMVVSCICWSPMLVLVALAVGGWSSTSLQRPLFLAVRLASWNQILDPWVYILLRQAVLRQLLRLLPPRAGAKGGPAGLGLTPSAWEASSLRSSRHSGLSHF
Method: as §1, §2
Biopsies from 47 patients were treated with PGE2 and selective EP receptor agonists to investigate receptor function, Table 1. A single agonist was added in increasing concentrations (1 nM to 5 µM, serosal side) to each MUAS-chamber. […]
To assess agonists and receptors, data obtained from dose–response curves were analyzed with either a single-Michaelis–Menten model (srm) or a two-Michaelis–Menten receptor/site model (trm) using Sigmaplot 13.0 for Windows, Systat Software Inc. (USA/Canada). […]

[3] = target: T1, EP4 receptor; experiment: EP4 antagonist GW-X added before PGE2 dose-response in MUAS-chambers, agonist-based Cheng-Prusoff analysis; assay type: cell-based
Method: as §1, §2
Biopsies from 26 patients were treated with selective EP receptor antagonists, Table 1. A combination of 3 antagonists was added to each MUAS chamber (serosal side), to single out and investigate the remaining non-inhibited EP receptor subtype. After antagonist incubation (45 min), cumulative doses of PGE2 were added (3 nM to 1 µM, serosal side). The EP4 receptor was also examined with another selective antagonist, GW627368X (GW-X, 5 µM, serosal side).
as §4
From 2 agonist dose-response curves, one determined in the absence of a competitive antagonist, the other in its presence at only a single concentration, it is possible to calculate the antagonist apparent half inhibition dissociation constant at equilibrium, […]. […]

[4] = tested on: EP receptors (EP1-4); experiment: PGE2 stimulation of colonic mucosa biopsies in MUAS-chambers, short circuit current (SCC); assay type: cell-based, human
Method: as §1, §2, §3, §4

RMax as share of the PGE2 response ([1]; CRN patients): ~75% | RMax as share of the PGE2 response ([1]; CTRL patients): approximately 50% | Sensitivity / potency for SCC increase ([1]; similar sensitivity to PGE2): high potency in the low nanomolar range | EC50 in CRN patients compared to CTRLs ([1]; single receptor model (srm)): higher | Average separation factor between EC50s of high and low affinity receptors ([1]; two receptor model (trm)): 15 | RMax of low affinity receptors in CRN patients ([1]; two receptor model (trm)): significantly increased
Compound: TCS 2510 [EP4 agonist]

Biopsies showing no increase in SCC [2]: 4 out of 22
Compound: CCCC[C@H](C)C[C@H](O)/C=C/[C@H]1[C@H](O)CC(=O)[C@@H]1CC(=O)C1CCC(C(=O)O)CC1 (some centres unmarked) [EP1 agonist, ONO-DI004]

Mean EC50 ratio (agonist EC50 with / without antagonist) ([3]; GW-X 5 µM, 4 protocols): approximately 25 | IC50 ([3]; against PGE2 (and TCS 2510), GW-X 5 µM, from EC50 ratios, 14 individual experiments): ~210 nM and 210 nM | Type of inhibition of PGE2 ([3]; low nanomolar PGE2 concentration range, rightward shift of the dose-response curve): competitive inhibition
Compound: CCOc1c2c(c(OCC)c3ccccc13)C(=O)N(c1ccc(CC(=O)NS(=O)(=O)c3ccccc3)cc1)C2 [GW-X, GW627368X]

EP4 receptor potency of PGE2 ([4]; normal appearing colonic mucosa): low nanomolar range | RMax rank among agonists ([4]; srm and trm): highest | Average separation factor between EC50s of high and low affinity receptors ([4]; two receptor model (trm)): 64
Compound: CCCCC[C@H](O)/C=C/[C@H]1[C@H](O)CC(=O)[C@@H]1C/C=C\CCCC(=O)O [PGE2, Prostaglandin E2]
PGE2 concentration at which SCC increased (as low as) ([4]; both patient groups (CRN and CTRL), serosal side): ≤ 1 nM
